Laboratory results as given in patent US10772893B2, “2-(morpholin-4-yl)-1,7-naphthyridines” (BAYER PHARMA AKTIENGESELLSCHAFT, priority 2014, dated 2020).

test system: HeLa cells; assay: Proliferation assay, crystal violet staining; conditions: Homo sapiens, 96 h, read-out: Inhibition of HeLa cell proliferation, HeLa cells, 4 days incubation

Question: How did the IC50 turn out when `CC(C)n1cc(-c2cc(N3CCOC[C@H]3C)nc3c(-c4ccn[nH]4)nccc23)cn1` [Example 255, 2-[(3R)-3-methylmorpholin-4-yl]-4-[1-(propan-2-yl)-1H-pyrazol-4-yl]-8-(1H-pyrazol-5-yl)-1,7-naphthyridine] was run?
Answer: Its IC50 is 458 nM.

Question: Which IC50 does the source give for `Cc1nn(C)c(C)c1-c1cc(N2CCOC[C@H]2C)nc2c(-c3ccn[nH]3)nccc12` [Example 258, 2-[(3R)-3-methylmorpholin-4-yl]-8-(1H-pyrazol-5-yl)-4-(1,3,5-trimethyl-1H-pyrazol-4-yl)-1,7-naphthyridine] here?
Answer: The IC50 was 263 nM.

Question: How did the IC50 turn out when `C[C@@H]1COCCN1c1cc(-c2cn(C)nc2C(F)(F)F)c2ccnc(-c3ccn[nH]3)c2n1` [Example 259, 2-[(3R)-3-methylmorpholin-4-yl]-4-[1-methyl-3-(trifluoromethyl)-1H-pyrazol-4-yl]-8-(1H-pyrazol-5-yl)-1,7-naphthyridine] was run?
Answer: The IC50 was 497 nM.

Question: Which IC50 does the source give for `C[C@@H]1COCCN1c1cc(-c2cnn(CCO)c2)c2ccnc(-c3ccn[nH]3)c2n1` [Example 260] here?
Answer: The IC50 was 485 nM.

Question: Which IC50 does the source give for `CCn1cc(-c2cc(N3CCOC[C@H]3C)nc3c(-c4ccn[nH]4)nccc23)cn1` [Example 261, 4-(1-ethyl-1H-pyrazol-4-yl)-2-[(3R)-3-methylmorpholin-4-yl]-8-(1H-pyrazol-5-yl)-1,7-naphthyridine] here?
Answer: The IC50 was 420 nM.

Question: How did the IC50 turn out when `C[C@@H]1COCCN1c1cc(-c2ccn(C)c2)c2ccnc(-c3ccn[nH]3)c2n1` [Example 262, 2-[(3R)-3-methylmorpholin-4-yl]-4-(1-methyl-1H-pyrrol-3-yl)-8-(1H-pyrazol-5-yl)-1,7-naphthyridine] was run?
Answer: Its IC50 is 471 nM.

Question: For `CC(C)n1ccc(-c2cc(N3CCOC[C@H]3C)nc3c(-c4ccn[nH]4)nccc23)n1` [Example 263, 2-[(3R)-3-methylmorpholin-4-yl]-4-[1-(propan-2-yl)-1H-pyrazol-3-yl]-8-(1H-pyrazol-5-yl)-1,7-naphthyridine], which IC50 is on record?
Answer: The IC50 was 332 nM.

Question: `Cc1cc(-c2cc(N3CCOC[C@H]3C)nc3c(-c4ccn[nH]4)nccc23)c(C)n1C` [Example 264, 2-[(3R)-3-methylmorpholin-4-yl]-8-(1H-pyrazol-5-yl)-4-(1,2,5-trimethyl-1H-pyrrol-3-yl)-1,7-naphthyridine] was tested. Which IC50 did it give?
Answer: The IC50 was 198 nM.

Question: How did the IC50 turn out when `Cc1n[nH]cc1-c1cc(N2CCOC[C@H]2C)nc2c(-c3ccn[nH]3)nccc12` [Example 266, 2-[(3R)-3-methylmorpholin-4-yl]-4-(3-methyl-1H-pyrazol-4-yl)-8-(1H-pyrazol-5-yl)-1,7-naphthyridine] was run?
Answer: The IC50 was 154 nM.

Question: How did the IC50 turn out when `C[C@@H]1COCCN1c1cc(N)c2ccnc(-c3ccn[nH]3)c2n1` [Example 267, 2-[(3R)-3-methylmorpholin-4-yl]-8-(1H-pyrazol-5-yl)-1,7-naphthyridin-4-amine] was run?
Answer: Its IC50 is 2970 nM.

Question: `CC(C)Cn1cc(-c2cc(N3CCOC[C@H]3C)nc3c(-c4ccn[nH]4)nccc23)cn1` [Example 268, 2-[(3R)-3-methylmorpholin-4-yl]-4-[1-(2-methylpropyl)-1H-pyrazol-4-yl]-8-(1H-pyrazol-5-yl)-1,7-naphthyridine] was tested. Which IC50 did it give?
Answer: Its IC50 is 415 nM.

Question: `C[C@@H]1COCCN1c1cc(-c2cn[nH]c2)c2ccnc(-c3ccn[nH]3)c2n1` [Example 269, 2-[(3R)-3-methylmorpholin-4-yl]-4-(1H-pyrazol-4-yl)-8-(1H-pyrazol-5-yl)-1,7-naphthyridine] was tested. Which IC50 did it give?
Answer: The IC50 was 405 nM.

Question: With `C[C@@H]1COCCN1c1cc(-c2ncco2)c2ccnc(-c3ccn[nH]3)c2n1` [Example 270, 2-[(3R)-3-methylmorpholin-4-yl]-4-(1,3-oxazol-2-yl)-8-(1H-pyrazol-5-yl)-1,7-naphthyridine] as the compound, how does the IC50 read?
Answer: Its IC50 is 565 nM.

Question: `Cc1nn(C)cc1-c1cc(N2CCOCC2)nc2c(-c3ccn[nH]3)nccc12` [Example 271, 4-(1,3-dimethyl-1H-pyrazol-4-yl)-2-(morpholin-4-yl)-8-(1H-pyrazol-5-yl)-1,7-naphthyridine] was tested. Which IC50 did it give?
Answer: Its IC50 is 1330 nM.

Question: How did the IC50 turn out when `Cc1c(-c2cc(N3CCOCC3)nc3c(-c4ccn[nH]4)nccc23)cnn1C` [Example 272, 4-(1,5-dimethyl-1H-pyrazol-4-yl)-2-(morpholin-4-yl)-8-(1H-pyrazol-5-yl)-1,7-naphthyridine] was run?
Answer: The IC50 was 648 nM.

Question: With `Cc1nn(C)c(C)c1-c1cc(N2CCOCC2)nc2c(-c3ccn[nH]3)nccc12` [Example 273, 2-(morpholin-4-yl)-8-(1H-pyrazol-5-yl)-4-(1,3,5-trimethyl-1H-pyrazol-4-yl)-1,7-naphthyridine] as the compound, how does the IC50 read?
Answer: Its IC50 is 999 nM.

Question: How did the IC50 turn out when `COCCS(C)(=O)=Nc1cc(N2CCOC[C@H]2C)nc2c(-c3ccn[nH]3)nccc12` (stereo partly drawn) [Example 274, 4-{[(2-methoxyethyl)(methyl)oxido-λ^6-sulfanylidene]amino}-2-[(3R)-3-methylmorpholin-4-yl]-8-(1H-pyrazol-5-yl)-1,7-naphthyridine] was run?
Answer: The IC50 was 610 nM.

Question: `C[C@@H]1COCCN1c1cc(N=S(C)(=O)c2ccc(Br)cc2)c2ccnc(-c3ccn[nH]3)c2n1` (stereo partly drawn) [Example 277, 4-{[(4-bromophenyl)(methyl)oxido-λ^6-sulfanylidene]amino}-2-[(3R)-3-methylmorpholin-4-yl]-8-(1H-pyrazol-5-yl)-1,7-naphthyridine] was tested. Which IC50 did it give?
Answer: The IC50 was 401 nM.

Question: How did the IC50 turn out when `C[C@@H]1COCCN1c1cc(N=S(C)(=O)C(C)(C)C)c2ccnc(-c3ccn[nH]3)c2n1` (stereo partly drawn) [Example 278, 4-{[tert-butyl(methyl)oxido-λ^6-sulfanylidene]amino}-2-[(3R)-3-methylmorpholin-4-yl]-8-(1H-pyrazol-5-yl]-1,7-naphthyridine] was run?
Answer: Its IC50 is 168 nM.

Question: With `O=S1(=Nc2cc(N3CCOCC3)nc3c(-c4ccn[nH]4)nccc23)CCCCC1` [Example 280, N-[2-(morpholin-4-yl)-8-(1H-pyrazol-5-yl)-1,7-naphthyridin-4-yl]hexahydro-1λ^4-thiopyran-1-imine 1-oxide] as the compound, how does the IC50 read?
Answer: Its IC50 is 417 nM.

Question: `CC(C)C(C)(O)c1cc(N2CCOC[C@H]2C)nc2c(-c3ccn[nH]3)nccc12` (stereo partly drawn) [Example 281, 3-methyl-2-{2-[(3R)-3-methylmorpholin-4-yl]-8-(1H-pyrazol-5-yl)-1,7-naphthyridin-4-yl}butan-2-ol] was tested. Which IC50 did it give?
Answer: Its IC50 is 259 nM.

Question: How did the IC50 turn out when `C[C@@H]1COCCN1c1cc(C(C)(O)C2CCOCC2)c2ccnc(-c3ccn[nH]3)c2n1` (stereo partly drawn) [Example 282, 1-{2-[(3R)-3-methylmorpholin-4-yl]-8-(1H-pyrazol-5-yl)-1,7-naphthyridin-4-yl}-1-(tetrahydro-2H-pyran-4-yl)ethanol] was run?
Answer: Its IC50 is 1180 nM.

Question: `C[C@@H]1COCCN1c1cc(C(C)(O)C(C)(C)C)c2ccnc(-c3ccn[nH]3)c2n1` (stereo partly drawn) [Example 283, 3,3-dimethyl-2-{2-[(3R)-3-methylmorpholin-4-yl]-8-(1H-pyrazol-5-yl)-1,7-naphthyridin-4-yl}butan-2-ol] was tested. Which IC50 did it give?
Answer: The IC50 was 146 nM.

Question: Which IC50 does the source give for `CCCCC(C)(O)c1cc(N2CCOC[C@H]2C)nc2c(-c3ccn[nH]3)nccc12` (stereo partly drawn) [Example 284, 2-{2-[(3R)-3-methylmorpholin-4-yl]-8-(1H-pyrazol-5-yl)-1,7-naphthyridin-4-yl}hexan-2-ol] here?
Answer: Its IC50 is 852 nM.

Question: How did the IC50 turn out when `O=C(NC1CC1)c1ccc(-c2cc(N3CCOCC3)nc3c(-c4ccn[nH]4)nccc23)cc1` [Example 291, N-cyclopropyl-4-[2-(morpholin-4-yl)-8-(1H-pyrazol-5-yl)-1,7-naphthyridin-4-yl]benzamide] was run?
Answer: Its IC50 is 1520 nM.

Question: How did the IC50 turn out when `Cc1ccncc1-c1cc(N2CCOCC2)nc2c(-c3ccn[nH]3)nccc12` [Example 292, 4-(4-methylpyridin-3-yl)-2-(morpholin-4-yl)-8-(1H-pyrazol-5-yl)-1,7-naphthyridine] was run?
Answer: The IC50 was 2640 nM.

Question: How did the IC50 turn out when `c1cc(-c2cc(N3CCOCC3)nc3c(-c4ccn[nH]4)nccc23)c2cc[nH]c2c1` [Example 294, 4-(1H-indol-4-yl)-2-(morpholin-4-yl)-8-(1H-pyrazol-5-yl)-1,7-naphthyridine] was run?
Answer: The IC50 was 2450 nM.

Question: `NC(=O)c1ccc(-c2cc(N3CCOCC3)nc3c(-c4ccn[nH]4)nccc23)cc1` [Example 296, 4-[2-(morpholin-4-yl)-8-(1H-pyrazol-5-yl)-1,7-naphthyridin-4-yl]benzamide] was tested. Which IC50 did it give?
Answer: Its IC50 is 2740 nM.

Question: For `Fc1cccc(-c2cc(N3CCOCC3)nc3c(-c4ccn[nH]4)nccc23)c1` [Example 298, 4-(3-fluorophenyl)-2-(morpholin-4-yl)-8-(1H-pyrazol-5-yl)-1,7-naphthyridine], which IC50 is on record?
Answer: Its IC50 is 2440 nM.

Question: For `Clc1ccc(-c2cc(N3CCOCC3)nc3c(-c4ccn[nH]4)nccc23)s1` [Example 299, 4-(5-chlorothiophen-2-yl)-2-(morpholin-4-yl)-8-(1H-pyrazol-5-yl)-1,7-naphthyridine], which IC50 is on record?
Answer: Its IC50 is > 3000 nM.

Question: `FC(F)(F)c1ccccc1-c1cc(N2CCOCC2)nc2c(-c3ccn[nH]3)nccc12` [Example 301, 2-(morpholin-4-yl)-8-(1H-pyrazol-5-yl)-4-[2-(trifluoromethyl)phenyl]-1,7-naphthyridine] was tested. Which IC50 did it give?
Answer: The IC50 was 2820 nM.

Question: Which IC50 does the source give for `FC(F)(F)c1cccc(-c2cc(N3CCOCC3)nc3c(-c4ccn[nH]4)nccc23)c1` [Example 303, 2-(morpholin-4-yl)-8-(1H-pyrazol-5-yl)-4-[3-(trifluoromethyl)phenyl]-1,7-naphthyridine] here?
Answer: The IC50 was > 3000 nM.

Question: For `Clc1cccc(-c2cc(N3CCOCC3)nc3c(-c4ccn[nH]4)nccc23)c1` [Example 304, 4-(3-chlorophenyl)-2-(morpholin-4-yl)-8-(1H-pyrazol-5-yl)-1,7-naphthyridine], which IC50 is on record?
Answer: Its IC50 is > 3000 nM.

Question: `COc1cccc(-c2cc(N3CCOCC3)nc3c(-c4ccn[nH]4)nccc23)c1` [Example 306, 4-(3-methoxyphenyl)-2-(morpholin-4-yl)-8-(1H-pyrazol-5-yl)-1,7-naphthyridine] was tested. Which IC50 did it give?
Answer: The IC50 was > 3000 nM.

Question: For `c1coc(Cc2cc(N3CCOCC3)nc3c(-c4ccn[nH]4)nccc23)c1` [Example 310, 4-(furan-2-ylmethyl)-2-(morpholin-4-yl)-8-(1H-pyrazol-5-yl)-1,7-naphthyridine], which IC50 is on record?
Answer: Its IC50 is > 3000 nM.

Question: For `Cc1cccc(-c2cc(N3CCOCC3)nc3c(-c4ccn[nH]4)nccc23)c1C` [Example 312, 4-(2,3-dimethylphenyl)-2-(morpholin-4-yl)-8-(1H-pyrazol-5-yl)-1,7-naphthyridine], which IC50 is on record?
Answer: The IC50 was > 3000 nM.

Question: `OCc1cccc(-c2cc(N3CCOCC3)nc3c(-c4ccn[nH]4)nccc23)c1` [Example 313, {3-[2-(morpholin-4-yl)-8-(1H-pyrazol-5-yl)-1,7-naphthyridin-4-yl]phenyl}methanol] was tested. Which IC50 did it give?
Answer: Its IC50 is 2540 nM.

Question: With `Fc1ccc(-c2cc(N3CCOCC3)nc3c(-c4ccn[nH]4)nccc23)cc1` [Example 314, 4-(4-fluorophenyl)-2-(morpholin-4-yl)-8-(1H-pyrazol-5-yl)-1,7-naphthyridine] as the compound, how does the IC50 read?
Answer: Its IC50 is > 3000 nM.
